Experiment [1] is described as follows: Metrazole Induced Convulsion Inhibition Assay. In kind it is in vivo, Cox standard strain albino male mice. To be noted: Mus musculus; oral gavage, 1 h before metrazole 110 mg./kg. i.p.; active = total score of 6 or less (3 mice, range 0-12); read-out: Minimum active oral dose, Metrazole. On the procedure:
(§1) In this assay, a compound to be tested was suspended in acacia (5%) and administered by gavage to each of three Cox standard strain albino male mice (18-24 grams) at the dose level being investigated. One hour after the oral administration, a water solution of metrazole (pentylenetetrazole) was administered by the intraperitoneal route to each mouse at a dose of 110 mg./kg. […] A score of 0 was assigned to a mouse not showing any signs of convulsant activity; a score of 1 was given to mice developing clonic convulsions; a score of 2 was given to mice showing flexor tonic convulsions; a score of 3 was given to mice showing extensor tonic convulsions; and a score of 4 was given to mice that died within the one hour. The scores of the three mice were totalled for each compound and dose level. The scores can range from 0 to 12; a score of 6 or less was interpreted as indicative of an active compound at that dose level. Values reported in Table 2 below are the minimum oral dose levels (mg./kg.) where activity as defined above was observed.

The nature of experiment [2]: Mouse Writhing Inhibition Assay. The class given is in vivo, Cox standard strain albino male mice. To be noted: oral gavage 60 min before acetic acid 55 mg./kg. i.p., active = less than ten writhes, read-out: Minimum active oral dose, Mouse Writhing. The protocol: Writhing, which is characterized by contraction of the abdominal musculature, extension of the hindlegs, and rotation of the trunk, was induced in Cox standard strain albino male mice. The mice, weighing 18-24 grams, were fasted overnight and given the test compound by gavage in an acacia suspension (5%) 60 minutes before writhing was induced by the intraperitoneal administration of 55 mg./kg. of acetic acid (0.55 percent). Each treatment group consisted of 3 mice. The total number of writhes for the treatment group was determined during a 5-minute observation starting 5 minutes after acetic acid administration.
A general note: An intraperitoneal irritant provokes the stretching counted in writhing tests.

A short description of experiment [3]: Appetite Suppression Assay. The class given is in vivo, Cox standard strain albino male mice. The settings on record: Mus musculus; oral gavage 30 min before feeding; active = weight gain of less than 10% of weight lost on fasting; read-out: Minimum active oral dose, Appetite Suppression. On the procedure:
In this test, groups of three Cox standard strain albino male mice were weighed (18-24 grams) and then fasted overnight (16-18 hours). The mice were reweighed and then given the test compound in a suspension of acacia (5%) by gavage. Thirty minutes after oral administration, the mice were allowed to eat freely for one hour. After the eating period, the mice were weighed once more. The percent of weight gained (from the time the mice were given the test compound to after the feeding period) compared to weight lost during the fast period was calculated. The non-drug treated control animals gained back 35-55% of the weight lost on fasting. Any compound at the dose level tested which produced a weight gain of less than 10% was considered to be active. The results in Table 2 report the lowest dose level in which there was activity for each compound tested. Dextroamphetamine sulfate is active in this system at about 2.5 mg./kg.

Another experiment addresses GABA receptor. The experiment is described as follows: In vitro activation of GABA binding ([3H]GABA, Triton X-100 treated membrane protein). To be noted: average of one or more tests, read-out: SC50 GABA (nanomolar concentration producing a 50% increase in binding). On the procedure:
(§2) The novel compounds of this invention were examined for their in vitro ability to activate GABA and benzodiazepine (BZ) binding. To measure the effect of a compound on GABA binding, Triton X-100 (octylphenoxy polyethoxyethanol, Rohm and Haas Co.) treated membrane protein was incubated in the presence of the compound and [^3 H]GABA as detailed by Horng and Wong, J. Neurochemistry, 32 (5), 1379 (1979). To examine BZ binding, H-flunirazepam and the compounds were incubated with native membrane protein as reported by Wong, et al, Brain Res. Bull., 5 (Suppl. 2), 853 (1980). The results in Table 1 are the nanomolar concentrations of compounds (by Example No.) which produced a 50 percent increase (SC50) in GABA or BZ binding. Each result is the average of one or more tests.

Experiment [4] is described as follows: Electroshock Induced Convulsion Inhibition Assay. In kind it is in vivo, Cox standard strain albino male mice. The settings on record: Mus musculus; oral; 0.1 second, 50 milliampere corneal electroshock; active = total score of 6 or less; read-out: Minimum active oral dose, Electro-Shock. On the procedure:
as §1
The drug administration and test conditions used in this assay were similar to those used in the metrazole induced convulsion inhibition assay above except that a 0.1 second, 50 milliampere electroshock through corneal electrodes induced the convulsion instead of metrazole. The animals were examined and evaluated immediately after the electroshock and were scored as before. The results in Table 2 are expressed as the lowest dose of each compound tested which was active as previously defined. For comparison, 18 milliamperes was usually sufficient to produce extensor tonic convulsions in about half of the control animals; at 50 milliamperes, almost all control animals died. Diazepam was active at about 1 mg./kg.

In another experiment the target is benzodiazepine receptor. The experiment can be described thus: In vitro activation of benzodiazepine (BZ) binding (flunirazepam, native membrane protein). To be noted: average of one or more tests, read-out: SC50 BZ (nanomolar concentration producing a 50% increase in binding). The protocol: as §2

Molecules are shown by their SMILES.

In the case of `Cc1ccc(-c2nnc(N3CCC(OC(=O)Oc4ccccc4)CC3)nc2-c2ccc(C)cc2)cc1` [Example 28, carbonic acid, 1-[5,6-bis(4-methylphenyl)-1,2,4-triazin-3-yl]-4-piperidinyl phenyl ester], the minimal effective dose in experiment [1], in experiment [2], in experiment [3] and in experiment [4] was over 200 mg/kg each time. In addition, the EC50 on GABA receptor worked out at 160 nM; on benzodiazepine receptor, 650 nM.

Take `Cc1ccc(-c2nnc(N3CCC(OC(N)=O)CC3)nc2-c2ccc(C)cc2)cc1` [Example 29, 1-[5,6-bis(4-methylphenyl)-1,2,4-triazin-3-yl]-4-piperidinol, carbamate (ester)]: the minimal effective dose in experiment [1] was over 6.25 mg/kg; in experiment [2] it was 1.56 mg/kg; in experiment [3], 0.4 mg/kg; in experiment [4] it was over 6.25 mg/kg. For the same compound, the EC50 worked out at 56 nM on GABA receptor and 15 nM at benzodiazepine receptor.

On to `Cc1ccc(-c2nnc(N3CCC(OS(C)(=O)=O)CC3)nc2-c2ccc(C)cc2)cc1` [Example 32, 1-[5,6-bis(4-methylphenyl)-1,2,4-triazin-3-yl]-4-piperidinol, methane sulfonate (ester)], for which the minimal effective dose in experiment [1] was over 6.25 mg/kg; in experiment [2] it was 0.4 mg/kg; in experiment [3] it was 0.4 mg/kg; in experiment [4] it was over 6.25 mg/kg. Besides, the EC50 on GABA receptor came out at 68 nM; at benzodiazepine receptor, 6 nM.

Turning to `Cc1ccc(-c2nnc(N3CCC(OS(=O)(=O)c4ccc(C)cc4)CC3)nc2-c2ccc(C)cc2)cc1` [Example 33, 1-[5,6-bis(4-methylphenyl)-1,2,4-triazin-3-yl]-4-piperidinol, 4-methylbenzene sulfonate (ester)], the minimal effective dose in experiment [1], in experiment [2], in experiment [3] and in experiment [4] was over 200 mg/kg each time. Further, the values for the EC50 at GABA receptor and at benzodiazepine receptor were 8000 nM and 1200 nM, respectively.

Consider `CCOC(=O)C1CCN(c2nnc(-c3ccc(C)cc3)c(-c3ccc(C)cc3)n2)CC1` [Example 35, 1-[5,6-bis(4-methylphenyl)-1,2,4-triazin-3-yl]-4-piperidinecarboxylic acid, ethyl ester], for which the minimal effective dose in experiment [1], in experiment [2], in experiment [3] and in experiment [4] was over 200 mg/kg throughout. In addition, the EC50 on GABA receptor worked out at 12 nM; at benzodiazepine receptor, 18 nM.

Regarding `Cc1ccc(-c2nnc(N3CCC4(CC3)OCCO4)nc2-c2ccc(C)cc2)cc1` [Example 38, 8-[5,6-bis(4-methylphenyl)-1,2,4-triazin-3-yl]-1,4-dioxa-8-azaspiro(4.5)decane], the minimal effective dose in experiment [1], in experiment [2], in experiment [3] and in experiment [4] was over 200 mg/kg in each case. In addition, the EC50 is over 10000 nM at GABA receptor and 8000 nM on benzodiazepine receptor.

Regarding `Cc1ccc(-c2nnc(N3CCC(=O)CC3)nc2-c2ccc(C)cc2)cc1` [Example 39, 1-[5,6-bis(4-methylphenyl)-1,2,4-triazin-3-yl]-4-piperidinone], the minimal effective dose in experiment [1] stood at 50 mg/kg; in experiment [2] it was 50 mg/kg; in experiment [3] it was 12.5 mg/kg; in experiment [4], 50 mg/kg. The results for the EC50 at GABA receptor and at benzodiazepine receptor were 200 nM and 430 nM, respectively.

With `Cc1ccc(-c2ncc(N3CCC(O)CC3)nc2-c2ccc(C)cc2)cc1` [Example 42, 1-[5,6-bis(4-methylphenyl)pyrazin-2-yl]-4-piperidinol], the minimal effective dose worked out at 12.5 mg/kg in experiment [1], 12.5 mg/kg in experiment [2], 12.5 mg/kg in experiment [3] and 50 mg/kg in experiment [4]. Moreover, the EC50 at GABA receptor is 1200 nM; on benzodiazepine receptor it was 400 nM.

As to `CC(=O)OC1CCN(c2cnc(-c3ccc(C)cc3)c(-c3ccc(C)cc3)n2)CC1` [Example 43, 1-[5,6-bis(4-methylphenyl)pyrazin-2-yl]-4-piperidinol, acetate (ester)], the minimal effective dose came out at 25 mg/kg in experiment [1], 100 mg/kg in experiment [2], 25 mg/kg in experiment [3] and 100 mg/kg in experiment [4]. For the same compound, the EC50 at GABA receptor came to 7 nM; at benzodiazepine receptor it was 10 nM.

For the origin of these results see patent US4585861A, “1,2,4-triazine derivatives” (Eli Lilly and Company, priority 1985, dated 1986).
